Measured values taken from the NIST ThermoML archive (doi:10.1021/je5000132).
Numbers after ± are expanded uncertainties.

Tests used:
[1] = for speed of sound: 100 kPa, Pulse-echo method; for speed of sound / viscosity / mass density: Liquid; for viscosity / mass density: 101 kPa; for viscosity: Concentric cylinders viscometry; for mass density: Vibrating tube method; for surface tension liquid-gas: 294.7 K, Drop volume
[2] = xn = mol fraction of the nth substance listed; settings: x2 = 0; for speed of sound: 100 kPa, Pulse-echo method; for speed of sound / viscosity / mass density: Liquid; for viscosity / mass density: 101 kPa; for viscosity: Concentric cylinders viscometry; for mass density: Vibrating tube method; for surface tension liquid-gas: 294.7 K, Drop volume

Q: Which speed of sound ([1]; 293.15 K) does the source give for CC(CC(C)(C)C)CC(C)(C)CC(C)(C)C (configuration not stated) [2,2,4,4,6,8,8-heptamethylnonane] here?
A: 1285.7 ± 2.2 m/s

Q: And the viscosity ([1]; 293.15 K)?
A: 3.7 ± 0.043 mPa·s

Q: And the mass density ([1]; 293.15 K)?
A: 784.457 ± 0.69 kg/m3

Q: And the surface tension liquid-gas [1]?
A: 24 ± 0.3 mN/m

Q: And the speed of sound ([1]; 303.15 K)?
A: 1248.5 ± 2.2 m/s

Q: And the viscosity ([1]; 303.15 K)?
A: 2.92 ± 0.035 mPa·s

Q: What about the mass density ([1]; 303.15 K) of the same compound?
A: 777.761 ± 0.68 kg/m3

Q: What about the speed of sound ([1]; 313.15 K) of the same compound?
A: 1211.8 ± 2.2 m/s

Q: And the viscosity ([1]; 313.15 K)?
A: 2.37 ± 0.03 mPa·s

Q: What about the mass density ([1]; 313.15 K) of the same compound?
A: 771.044 ± 0.68 kg/m3

Q: What about the speed of sound ([1]; 323.15 K) of the same compound?
A: 1176 ± 2.2 m/s

Q: And the viscosity ([1]; 323.15 K)?
A: 1.95 ± 0.027 mPa·s

Q: And the mass density ([1]; 323.15 K)?
A: 764.316 ± 0.67 kg/m3

Q: And the speed of sound ([1]; 333.15 K)?
A: 1140.8 ± 2.2 m/s

Q: And the viscosity ([1]; 333.15 K)?
A: 1.63 ± 0.024 mPa·s

Q: And the mass density ([1]; 333.15 K)?
A: 757.571 ± 0.67 kg/m3

Q: What about the viscosity ([1]; 343.15 K) of the same compound?
A: 1.39 ± 0.022 mPa·s

Q: And the mass density ([1]; 343.15 K)?
A: 750.7 ± 0.7 kg/m3

Q: And the viscosity ([1]; 353.15 K)?
A: 1.19 ± 0.021 mPa·s

Q: And the mass density ([1]; 353.15 K)?
A: 743.8 ± 0.7 kg/m3

Q: And the viscosity ([1]; 363.15 K)?
A: 1.04 ± 0.02 mPa·s

Q: And the mass density ([1]; 363.15 K)?
A: 736.8 ± 0.7 kg/m3

Q: What about the viscosity ([1]; 373.15 K) of the same compound?
A: 0.914 ± 0.019 mPa·s

Q: And the mass density ([1]; 373.15 K)?
A: 729.9 ± 0.7 kg/m3

Q: What does the source list for CC(CC(C)(C)C)CC(C)(C)C [2,2,4,6,6-pentamethylheptane]?
A: speed of sound ([1]; 293.15 K): 1203.6 ± 2.2 m/s; surface tension liquid-gas [1]: 21.8 ± 0.3 mN/m; speed of sound ([1]; 303.15 K): 1164.8 ± 2.2 m/s; speed of sound ([1]; 313.15 K): 1126.7 ± 2.2 m/s; speed of sound ([1]; 323.15 K): 1089.3 ± 2.2 m/s; speed of sound ([1]; 333.15 K): 1052.5 ± 2.2 m/s

Q: For CCCCCCCCCCCC [dodecane], which speed of sound ([1]; 293.15 K) is on record?
A: 1297.6 ± 1.3 m/s

Q: What about the viscosity ([1]; 293.15 K) of the same compound?
A: 1.49 ± 0.019 mPa·s

Q: What about the mass density ([1]; 293.15 K) of the same compound?
A: 748.893 ± 0.46 kg/m3

Q: And the surface tension liquid-gas [1]?
A: 25.3 ± 0.3 mN/m

Q: And the speed of sound ([1]; 303.15 K)?
A: 1259.3 ± 1.3 m/s

Q: What about the viscosity ([1]; 303.15 K) of the same compound?
A: 1.25 ± 0.019 mPa·s

Q: And the mass density ([1]; 303.15 K)?
A: 741.635 ± 0.46 kg/m3

Q: What about the speed of sound ([1]; 313.15 K) of the same compound?
A: 1221.4 ± 1.3 m/s

Q: What about the viscosity ([1]; 313.15 K) of the same compound?
A: 1.06 ± 0.018 mPa·s

Q: What about the mass density ([1]; 313.15 K) of the same compound?
A: 734.349 ± 0.46 kg/m3

Q: What about the speed of sound ([1]; 323.15 K) of the same compound?
A: 1184.2 ± 1.3 m/s

Q: And the viscosity ([1]; 323.15 K)?
A: 0.916 ± 0.018 mPa·s

Q: What about the mass density ([1]; 323.15 K) of the same compound?
A: 727.038 ± 0.46 kg/m3

Q: What about the speed of sound ([1]; 333.15 K) of the same compound?
A: 1147.5 ± 1.3 m/s

Q: And the viscosity ([1]; 333.15 K)?
A: 0.799 ± 0.017 mPa·s

Q: And the mass density ([1]; 333.15 K)?
A: 719.691 ± 0.46 kg/m3

Q: And the viscosity ([1]; 343.15 K)?
A: 0.704 ± 0.017 mPa·s

Q: And the mass density ([1]; 343.15 K)?
A: 712.2 ± 0.46 kg/m3

Q: What about the viscosity ([1]; 353.15 K) of the same compound?
A: 0.625 ± 0.017 mPa·s

Q: And the mass density ([1]; 353.15 K)?
A: 704.7 ± 0.46 kg/m3

Q: What about the viscosity ([1]; 363.15 K) of the same compound?
A: 0.56 ± 0.017 mPa·s

Q: And the mass density ([1]; 363.15 K)?
A: 697.1 ± 0.46 kg/m3

Q: And the viscosity ([1]; 373.15 K)?
A: 0.506 ± 0.017 mPa·s

Q: And the mass density ([1]; 373.15 K)?
A: 689.6 ± 0.46 kg/m3

Q: With CCCCCCCCCCCC [dodecane] + CC(CC(C)(C)C)CC(C)(C)C as the compound, how does the speed of sound ([2]; 293.15 K) read?
A: 1297.6 ± 1.3 m/s

Q: What about the viscosity ([2]; 293.15 K) of the same compound?
A: 1.49 ± 0.019 mPa·s

Q: What about the mass density ([2]; 293.15 K) of the same compound?
A: 748.893 ± 0.55 kg/m3

Q: What about the surface tension liquid-gas [2] of the same compound?
A: 25.3 ± 0.3 mN/m

Q: What about the speed of sound ([2]; 303.15 K) of the same compound?
A: 1259.3 ± 1.3 m/s

Q: And the viscosity ([2]; 303.15 K)?
A: 1.25 ± 0.019 mPa·s

Q: What about the mass density ([2]; 303.15 K) of the same compound?
A: 741.635 ± 0.55 kg/m3

Q: What about the speed of sound ([2]; 313.15 K) of the same compound?
A: 1221.4 ± 1.3 m/s

Q: And the viscosity ([2]; 313.15 K)?
A: 1.06 ± 0.018 mPa·s

Q: And the mass density ([2]; 313.15 K)?
A: 734.349 ± 0.55 kg/m3

Q: And the speed of sound ([2]; 323.15 K)?
A: 1184.2 ± 1.3 m/s

Q: What about the viscosity ([2]; 323.15 K) of the same compound?
A: 0.916 ± 0.018 mPa·s

Q: What about the mass density ([2]; 323.15 K) of the same compound?
A: 727.038 ± 0.55 kg/m3

Q: And the speed of sound ([2]; 333.15 K)?
A: 1147.5 ± 1.3 m/s

Q: And the viscosity ([2]; 333.15 K)?
A: 0.799 ± 0.017 mPa·s

Q: And the mass density ([2]; 333.15 K)?
A: 719.691 ± 0.55 kg/m3

Q: And the viscosity ([2]; 343.15 K)?
A: 0.704 ± 0.017 mPa·s

Q: What about the mass density ([2]; 343.15 K) of the same compound?
A: 712.2 ± 0.55 kg/m3

Q: What about the viscosity ([2]; 353.15 K) of the same compound?
A: 0.625 ± 0.017 mPa·s

Q: What about the mass density ([2]; 353.15 K) of the same compound?
A: 704.7 ± 0.55 kg/m3

Q: What about the viscosity ([2]; 363.15 K) of the same compound?
A: 0.56 ± 0.017 mPa·s

Q: And the mass density ([2]; 363.15 K)?
A: 697.1 ± 0.55 kg/m3

Q: And the viscosity ([2]; 373.15 K)?
A: 0.506 ± 0.017 mPa·s

Q: And the mass density ([2]; 373.15 K)?
A: 689.6 ± 0.55 kg/m3

Q: With CCCCCCCCCCCC [dodecane] + CC(CC(C)(C)C)CC(C)(C)CC(C)(C)C as the compound, how does the speed of sound ([2]; 293.15 K) read?
A: 1297.6 ± 1.3 m/s

Q: And the viscosity ([2]; 293.15 K)?
A: 1.49 ± 0.019 mPa·s

Q: What about the mass density ([2]; 293.15 K) of the same compound?
A: 748.893 ± 1 kg/m3

Q: What about the surface tension liquid-gas [2] of the same compound?
A: 25.3 ± 0.3 mN/m

Q: And the speed of sound ([2]; 303.15 K)?
A: 1259.3 ± 1.3 m/s

Q: What about the viscosity ([2]; 303.15 K) of the same compound?
A: 1.25 ± 0.019 mPa·s

Q: And the mass density ([2]; 303.15 K)?
A: 741.635 ± 1 kg/m3

Q: What about the speed of sound ([2]; 313.15 K) of the same compound?
A: 1221.4 ± 1.3 m/s

Q: What about the viscosity ([2]; 313.15 K) of the same compound?
A: 1.06 ± 0.018 mPa·s

Q: And the mass density ([2]; 313.15 K)?
A: 734.349 ± 1 kg/m3

Q: And the speed of sound ([2]; 323.15 K)?
A: 1184.2 ± 1.3 m/s

Q: And the viscosity ([2]; 323.15 K)?
A: 0.916 ± 0.018 mPa·s

Q: What about the mass density ([2]; 323.15 K) of the same compound?
A: 727.038 ± 1 kg/m3

Q: What about the speed of sound ([2]; 333.15 K) of the same compound?
A: 1147.5 ± 1.3 m/s

Q: And the viscosity ([2]; 333.15 K)?
A: 0.799 ± 0.017 mPa·s

Q: What about the mass density ([2]; 333.15 K) of the same compound?
A: 719.691 ± 1 kg/m3

Q: What about the viscosity ([2]; 343.15 K) of the same compound?
A: 0.704 ± 0.017 mPa·s

Q: And the mass density ([2]; 343.15 K)?
A: 712.2 ± 1 kg/m3

Q: And the viscosity ([2]; 353.15 K)?
A: 0.625 ± 0.017 mPa·s

Q: What about the mass density ([2]; 353.15 K) of the same compound?
A: 704.7 ± 1 kg/m3

Q: And the viscosity ([2]; 363.15 K)?
A: 0.56 ± 0.017 mPa·s

Q: What about the mass density ([2]; 363.15 K) of the same compound?
A: 697.1 ± 1 kg/m3

Q: And the viscosity ([2]; 373.15 K)?
A: 0.506 ± 0.017 mPa·s

Q: And the mass density ([2]; 373.15 K)?
A: 689.6 ± 1 kg/m3
